Source: ChEMBL document CHEMBL3991601, “The target landscape of clinical kinase drugs” (Science, 2017)
Active and inactive are the calls of the source.

How the values were obtained:
[1] = biological target: Cyclin-dependent kinase 1 (Homo sapiens, UniProt P06493)
[2] = biological target: T1, Exosome RNA helicase MTR4 (Homo sapiens, UniProt P42285)
T1 sequence (P42285 whole entry): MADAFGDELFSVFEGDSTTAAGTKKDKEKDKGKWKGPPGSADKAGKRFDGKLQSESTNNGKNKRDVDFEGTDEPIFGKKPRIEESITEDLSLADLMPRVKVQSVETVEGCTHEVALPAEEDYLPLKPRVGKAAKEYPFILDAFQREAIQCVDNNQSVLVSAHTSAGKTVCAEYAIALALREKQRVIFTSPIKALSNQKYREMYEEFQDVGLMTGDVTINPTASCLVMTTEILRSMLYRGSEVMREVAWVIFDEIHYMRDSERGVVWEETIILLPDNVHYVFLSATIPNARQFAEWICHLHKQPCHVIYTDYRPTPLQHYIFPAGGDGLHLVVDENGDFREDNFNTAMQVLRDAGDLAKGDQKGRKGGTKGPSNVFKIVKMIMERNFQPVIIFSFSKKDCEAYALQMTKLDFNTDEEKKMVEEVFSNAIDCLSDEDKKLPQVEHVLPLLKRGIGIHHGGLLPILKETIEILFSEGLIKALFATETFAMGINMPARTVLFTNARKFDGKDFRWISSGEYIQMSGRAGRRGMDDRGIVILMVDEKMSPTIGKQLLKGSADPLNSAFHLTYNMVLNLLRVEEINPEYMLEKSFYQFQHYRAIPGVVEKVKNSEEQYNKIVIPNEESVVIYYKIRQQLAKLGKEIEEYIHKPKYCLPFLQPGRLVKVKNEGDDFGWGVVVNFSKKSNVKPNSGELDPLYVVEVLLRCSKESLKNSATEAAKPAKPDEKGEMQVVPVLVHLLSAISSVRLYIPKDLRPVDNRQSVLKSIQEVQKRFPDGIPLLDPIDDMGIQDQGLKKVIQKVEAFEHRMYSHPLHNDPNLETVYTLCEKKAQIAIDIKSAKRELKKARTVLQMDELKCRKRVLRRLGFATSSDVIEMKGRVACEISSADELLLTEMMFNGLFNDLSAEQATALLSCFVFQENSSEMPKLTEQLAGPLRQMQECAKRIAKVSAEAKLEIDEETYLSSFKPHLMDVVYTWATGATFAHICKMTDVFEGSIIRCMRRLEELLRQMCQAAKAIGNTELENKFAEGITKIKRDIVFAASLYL

[3] = biological target: T2, Serine/threonine-protein kinase Nek2 (Homo sapiens, UniProt P51955)
T2 sequence (P51955 whole entry): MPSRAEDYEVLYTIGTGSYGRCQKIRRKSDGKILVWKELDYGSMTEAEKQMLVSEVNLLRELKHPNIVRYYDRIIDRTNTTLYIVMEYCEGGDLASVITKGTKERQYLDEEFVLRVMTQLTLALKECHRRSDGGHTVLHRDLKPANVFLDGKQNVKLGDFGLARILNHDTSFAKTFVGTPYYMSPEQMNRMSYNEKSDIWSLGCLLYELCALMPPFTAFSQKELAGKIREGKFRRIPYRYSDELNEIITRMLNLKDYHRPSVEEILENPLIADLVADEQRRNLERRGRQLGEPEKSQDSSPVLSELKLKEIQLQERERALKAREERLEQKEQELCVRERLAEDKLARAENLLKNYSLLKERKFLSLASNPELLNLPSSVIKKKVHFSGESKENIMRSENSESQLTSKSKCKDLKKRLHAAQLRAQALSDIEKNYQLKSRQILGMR

[4] = biological target: T3, cGMP-dependent protein kinase 1 (Homo sapiens, UniProt Q13976)
T3 sequence (Q13976 whole entry): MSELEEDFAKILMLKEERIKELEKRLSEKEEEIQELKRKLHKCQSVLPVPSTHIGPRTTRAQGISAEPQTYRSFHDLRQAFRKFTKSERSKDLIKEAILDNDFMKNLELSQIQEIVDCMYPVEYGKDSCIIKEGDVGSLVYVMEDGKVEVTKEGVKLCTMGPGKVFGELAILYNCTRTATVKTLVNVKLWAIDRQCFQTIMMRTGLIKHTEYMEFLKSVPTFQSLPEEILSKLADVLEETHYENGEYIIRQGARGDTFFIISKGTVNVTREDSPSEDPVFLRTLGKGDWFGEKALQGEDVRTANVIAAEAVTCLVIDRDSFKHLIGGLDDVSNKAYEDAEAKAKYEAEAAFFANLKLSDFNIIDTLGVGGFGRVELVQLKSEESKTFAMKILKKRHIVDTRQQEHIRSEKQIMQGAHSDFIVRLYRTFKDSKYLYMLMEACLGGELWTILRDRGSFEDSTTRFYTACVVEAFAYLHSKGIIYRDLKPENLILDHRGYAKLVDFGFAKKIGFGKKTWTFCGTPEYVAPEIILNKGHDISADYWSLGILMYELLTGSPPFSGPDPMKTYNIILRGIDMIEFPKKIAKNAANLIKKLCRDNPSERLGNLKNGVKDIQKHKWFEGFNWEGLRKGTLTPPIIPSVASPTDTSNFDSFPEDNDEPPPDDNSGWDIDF

[5] = biological target: Mitogen-activated protein kinase 8 (Homo sapiens, UniProt P45983)
Chain of Mitogen-activated protein kinase 8 (P45983 whole entry): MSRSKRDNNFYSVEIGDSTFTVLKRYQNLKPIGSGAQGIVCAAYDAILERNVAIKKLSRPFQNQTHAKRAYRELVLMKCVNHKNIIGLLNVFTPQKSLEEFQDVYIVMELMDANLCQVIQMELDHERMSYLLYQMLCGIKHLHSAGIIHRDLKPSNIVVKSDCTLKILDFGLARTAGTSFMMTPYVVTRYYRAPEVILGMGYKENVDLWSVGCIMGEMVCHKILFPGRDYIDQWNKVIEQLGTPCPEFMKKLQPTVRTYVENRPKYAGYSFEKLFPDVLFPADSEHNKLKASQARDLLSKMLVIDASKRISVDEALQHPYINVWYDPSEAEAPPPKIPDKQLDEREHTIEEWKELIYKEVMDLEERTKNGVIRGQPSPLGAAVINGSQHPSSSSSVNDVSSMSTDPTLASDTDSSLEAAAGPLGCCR

[6] = biological target: T4, Cytochrome c1, heme protein, mitochondrial (Homo sapiens, UniProt P08574)
T4 sequence (P08574 whole entry): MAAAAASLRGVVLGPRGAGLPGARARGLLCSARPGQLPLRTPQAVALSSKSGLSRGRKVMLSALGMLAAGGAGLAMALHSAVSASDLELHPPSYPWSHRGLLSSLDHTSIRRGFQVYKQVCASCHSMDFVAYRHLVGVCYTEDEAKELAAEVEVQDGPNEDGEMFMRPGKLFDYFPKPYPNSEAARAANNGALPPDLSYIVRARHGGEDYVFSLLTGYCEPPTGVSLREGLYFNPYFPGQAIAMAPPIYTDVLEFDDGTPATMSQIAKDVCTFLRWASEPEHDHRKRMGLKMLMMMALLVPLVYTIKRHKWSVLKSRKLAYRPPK

Measured: Kd
Further: in the data inactive means no Kd found up to 30 µM.

Chain of Cyclin-dependent kinase 1 (P06493 whole entry): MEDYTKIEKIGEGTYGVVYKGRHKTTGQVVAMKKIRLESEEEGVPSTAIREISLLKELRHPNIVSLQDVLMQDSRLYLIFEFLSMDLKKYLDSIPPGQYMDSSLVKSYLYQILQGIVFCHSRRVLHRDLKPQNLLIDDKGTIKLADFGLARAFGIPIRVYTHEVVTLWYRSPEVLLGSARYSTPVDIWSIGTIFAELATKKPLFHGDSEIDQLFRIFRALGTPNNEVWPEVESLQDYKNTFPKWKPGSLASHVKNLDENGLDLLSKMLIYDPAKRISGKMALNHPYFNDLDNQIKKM

CN1N=C(N)c2cn([C@@H]3O[C@H](COP(=O)(O)O)[C@@H](O)[C@H]3O)c3ncnc1c23 [TRICIRIBINE PHOSPHATE]
inactive: [1] > 30 µM | [2] > 30 µM | [3] > 30 µM | [4] > 30 µM | [5] > 30 µM | [6] > 30 µM

CC(=O)Nc1cccc(-n2c(=O)n(C3CC3)c(=O)c3c(Nc4ccc(I)cc4F)n(C)c(=O)c(C)c32)c1 [TRAMETINIB]
inactive: [1] > 30 µM | [2] > 30 µM | [3] > 30 µM | [4] > 30 µM | [5] > 30 µM | [6] > 30 µM

COCCNCc1ccc(-c2cc3nccc(Oc4ccc(NC(=S)NC(=O)Cc5ccc(F)cc5)cc4F)c3s2)nc1 [GLESATINIB]
inactive: [1] > 30 µM | [2] > 30 µM | [3] > 30 µM | [4] > 30 µM | [5] > 30 µM | [6] > 30 µM

CNS(=O)(=O)Nc1nccc(Cc2c(C)c3ccc(Oc4ncccn4)cc3oc2=O)c1F [AVUTOMETINIB]
inactive: [1] > 30 µM | [2] > 30 µM | [3] > 30 µM | [4] > 30 µM | [5] > 30 µM | [6] > 30 µM
